Source: patent US12479805B2, “Indazole hydrazide compound and application thereof” (Beijing Baheal Chengchuang Pharmaceutical Research and …, priority 2021, dated 2025)
Where two headings read alike, the source gives them in different places.

Key:
[1] = tested on: tumor cells LNCaP; experiment: Anti-tumor activity assay (chemiluminescence CTG cell viability), LNCaP; format: cell-based; details: for IC50: Homo sapiens, 72 h, CTG chemiluminescence
Description: (§1) The frozen tumor cells (prostate cancer, ovarian cancer, etc.) were taken out from liquid nitrogen, and quickly dissolved at 37° C. The cells were added to 5 ml of the corresponding medium containing FBS and centrifuged at 300 g for 5 minutes. The precipitate was collected, resuspended with the corresponding medium and then mixed well. After that, cells were added to a 24-well cell culture dish, supplemented with the medium to a total volume of 2 mL per well at 37° C. and cultured. After the confluence reached about 90%, subculturing or counting and plating was performed.
(§2) After the cultured tumor cells were sufficient to be passaged, they were digested with trypsin and a single cell suspension was prepared. After counting, cells were adjusted to a concentration of 1.2×10^4 cells/ml with the corresponding medium. 90 μl of the mixed solution was added to a 96-well plate and incubated at 37° C. for 30 minutes. Then the mixture was added with the corresponding medium and incubated in a cell incubator at 37° C. overnight. The morphology and confluence of tumor cells were observed.
(§3) After the tumor cells were cultured overnight, serial dilutions of the compounds were prepared and added to the culture system.
(§4) The stock solution of the indazole hydrazide compound (100 mM) dissolved in DMSO was fully dissolved at room temperature. If there was any insoluble matter, heating and ultrasonication were carried out for 5 minutes to observe until dissolution.
(§5) 20 μl DMSO was added to wells 2-9 of a 96-well V-shaped compound dilution plate, and 30 μl stock solution was added to well 1. The compound dilution plate was placed on a shaking mixer. 10 μl liquid was transferred from well 1 to well 2, mixed well by pipetting and shaking, then 10 μl of liquid was transferred from well 2 to well 3, mixed well by pipetting and shaking, and so on . . . and finally 10 μl of liquid was transferred from well 8 to well 9, mixed well by pipetting and shaking, and 1000× gradient dilution stock solution was prepared. [Note: As DMSO easily absorbs moisture in the air, after the operation, the compound dilution plate was immediately sealed with parafilm, stored at 4° C., and discarded after 1 week. When using it again, the parafilm was removed after the temperature reached room temperature to avoid inaccurate concentration caused by moisture absorption.]
(§6) In the ultra-clean workbench, a 96-well sterile cell culture plate was used. 198 μl of medium was added to wells 1-9, and 2 μl of the stock solution in wells 1-9 of the 1000× stock solution was transferred to the corresponding wells 1-9 of the 96-well sterile cell culture plate, mixed well by pipetting and shaking, and […] was prepared. This stock solution needed to be prepared and used on the same day.
(§7) 10 μl of the 10× stock solution prepared on the day was added to the cell culture medium.
(§8) It was incubated for 72 h at 37° C. under 5% carbon dioxide conditions.
(§9) Chemiluminescence method was used to measure ATP level of cells to evaluate cell viability. The specific operation was performed in accordance with the instructions. After the incubation, 50 μL of CTG solution was added. After mixing well, the lysis mixture was transferred to a microplate reader. After 5-10 minutes, the chemiluminescence data were gathered in the microplate reader. Excel software was used to analyze and process the data, and GraphPad Prism 7 software was used to calculate IC50 according to the fitted dose-effect curve generated by the chemiluminescence data.
(§10) In this test, Z factor was used as a quality control indicator. Z′ factor was defined by 4 parameters: the mean (μ) and standard deviation (σ) of the positive control (positive, p) and the negative control (negative, n).
(§11) The negative control group was the untreated group with the addition of solvent (DMSO); the positive control was 2.5 μM BEZ235 or 1 μM Staurosporine. […]

[2] = tested on: tumor cells 22RV1; experiment: Anti-tumor activity assay (chemiluminescence CTG cell viability), 22RV1; format: cell-based; details: 22RV1 cells; for Hillslope 22RV1: fitted dose-effect curve; for IC50: Homo sapiens, 72 h, CTG chemiluminescence
Description: as §1, §2, §3, §4, §5, §6, §7, §8, §9, §10, §11

[3] = tested on: HUVEC cells; experiment: 2D angiogenesis experiment (HUVEC on Matrigel); format: cell-based, human; details: VEGF, 4 h
Description: 3.1 Evaluation of Anti-Angiogenesis of Compounds by 2D Angiogenesis Experiment:
(1) In a 96-well plate, 50 ul of 100% Matrigel was added to each well and air bubbles should be avoided. The plate was then placed in a 37° C. incubator for 45 minutes.
(2) When the confluence of HUVEC cells in good growth state reached about 80%, the cells were digested, and resuspended in HUVEC complete medium. 40 uL of resuspension was added to each well in triplicate at a concentration of 4×10000 cells/well.
(3) 5 uL of compounds with three concentrations of high, medium and low was added to the test compound group. In the VEGF group, 5 uL of culture medium containing 200 ng/ml VEGF was added. In the solvent group, 10 uL culture medium was supplemented.
(4) Cells were incubated in a 37° C. 5% CO2 incubator for 4 h, and photos of each well were taken.

[4] = tested on: tumor cells and HUVEC cells spheroids; experiment: 3D co-culture of tumor cells and HUVEC cells anti-angiogenesis experiment; format: cell-based, human; details: 0.3 μM, 1.0 μM, day 2 and day 5, VEGF 20 ng/mL
Description: 3.2 Experiments of Evaluating Anti-Angiogenesis of Compounds by 3D Co-Culture of Tumor Cells and HUVEC Cells: • (1) 25,000 tumor cells and 25,000 HUVEC cells were mixed and plated in a low-adsorption 24-well plate. Cells were shaken horizontally in a 37° C. incubator and placed for 24 h to form a suspension of Spheroids. • (2) 40 uL of 10% Matrigel was added to each well, and placed at 37° C. for 45 min to crosslink and harden the gel. 40 uL of suspension with Spheroids was added to wells. • (3) After 24 h, 10 uL of compounds with three concentrations of high, medium and low was added to the test compound group. In the VEGF group, 10 uL of culture medium containing 200 ng/ml VEGF was added. In the solvent group, 20 uL culture medium was supplemented. • (4) Cells were incubated in a 37° C. 5% CO2 incubator for 0, 2, 5, and 7 days, and photos of each well were taken.
Bright-field photos were taken under the microscope, scale bar=100 μm. The imageview software measurement tool was used to count the length of the blood vessels generated by one organoid. The average of the total length of blood vessels was calculated. It was compared with the 20 ng/ml VEGF group. *p<0.05, **p<0.01. Error bars indicate ±SEM.
In the 3D […] experiment, the following conclusions can be drawn based on the bright field photos and the total length of blood vessels on 0, 2, 5, and 7 days after addition of drugs: […]

[5] = target: integrin protein αvβ3 (Homo sapiens, UniProt P05106+P06756); experiment: Affinity test by surface plasmon resonance (Biacore 8K); format: binding
Description: The surface plasmon resonance instrument Biacore 8K was used to analyze the interaction between the compound and the integrin protein αvβ3. First, the system temperature was set to 25° C., and the flow rate to […]. PBS buffer was passed until the baseline was stable.
Without activating the surface of the chip, the integrin αvβ3 protein sample was dissolved in sodium acetate buffer with different pH values (pH=4, 4.5, 5) to make it carry different amounts of charge. Then the integrin protein sample flowed through the surface of the chip at a flow rate of 10 μL/min. Through the binding curve of integrin and the chip, a appropriate pH condition (pH=4.0) was determined. Finally, 50 mM NaOH eluate was injected to wash away the protein adsorbed on the chip surface.
CM5 chip was selected. The protein coupling was operated according to the amino coupling method, and the coupling steps are as follows: • (1) Activation: NHS/EDC mixture (0.1 M NHS and 0.4 M EDC, mixed at a volume ratio of 1:1 before use, and used immediately) was injected for 800 s at a flow rate of 10 μL/min, to activate the carboxyl of glucan on the surface of the chip; • (2) Immobilization: 20 ng/μL integrin αvβ3 protein solution was prepared with the buffer with the pH value determined in the pretreatment, and was injected for 800 s at a flow rate of 10 μL/min; • (3) Blocking: 1 M ethanolamine hydrochloride was used to block for 800 s to complete the immobilization process of the protein. 4.1.4 Binding Experiment
The compound to be tested was dissolved in PBS-P buffer (1.0×PBS, pH7.4, 0.15M Nacl, 0.05% tween-20), to prepare to a concentration of 50 μM. It was injected at a flow rate of 10 μL/min for a preliminary binding analysis.
The compound that was positive in the preliminary analysis was then prepared with buffers to a concentration gradient of 50 μM, 25 μM, 12.5 μM, 6.3 μM, 3.1 μM, 1.6 μM, 0.78 μM, 0.39 μM, 0.097 μM, 0.024 μM, and 0.0061 μM, and SB273005 was used as a positive control for a kinetic constant analysis.

[6] = tested on: prostate cancer PC-3 cells; experiment: Anti-tumor activity assay (chemiluminescence), PC-3; format: cell-based; details: FIG. 21-22
Description: as §1
(§12) After the cultured tumor cells were sufficient to be passaged, they were digested with trypsin and a single cell suspension was prepared. After counting, cells were adjusted to a concentration of 1.2×10^4 cells/ml with the corresponding medium. 90 μl of the mixed solution was added to a 96-well plate and incubated at 37° C. for 30 minutes. Then the mixture was added with the corresponding medium and incubated in a cell incubator at 37° C. overnight. The morphology and confluence of tumor cells were observed. […]
(§13) Chemiluminescence method was used to measure ATP level of cells to evaluate cell viability. […] After mixing well, the lysis mixture was transferred to a microplate reader. After 5-10 minutes, the chemiluminescence data were gathered in the microplate reader. […]

[7] = tested on: microvascular endothelial cell HMEC-1; experiment: Activity assay (chemiluminescence), HMEC-1; format: cell-based; details: HMEC-1 cells, FIG. 21-22
[8] = tested on: melanoma cell WM115; experiment: Anti-tumor activity assay (chemiluminescence), WM115; format: cell-based; details: WM115 cells, FIG. 21-22
Description: as §1, §12, §13

[9] = tested on: ovarian cancer cell OVCAR-4; experiment: Anti-tumor activity assay (chemiluminescence), OVCAR-4; format: cell-based; details: OVCAR-4 cells, FIG. 21-22
Description: as §1, §12, §13

[10] = tested on: vascular endothelial cell HUVEC-T11; experiment: Activity assay (chemiluminescence), HUVEC-T11; format: cell-based; details: HUVEC-T11 cells, FIG. 21-22
[11] = tested on: prostate cancer DU145 cells; experiment: Anti-tumor activity assay (chemiluminescence), DU145; format: cell-based; details: FIG. 21-22
Description: as §1, §12, §13

[12] = tested on: drug-resistant 22RV1 cells; experiment: Combination with enzalutamide on 22RV1 cells (chemiluminescence); format: cell-based; details: in combination with enzalutamide, enzalutamide-resistant 22RV1 cells, FIG. 23
Description: as §9

[13] = SPR, immobilized integrin αvβ3, 25° C., read-out: KD affinity

integrin protein αvβ3, sequence (P06756 31-1048): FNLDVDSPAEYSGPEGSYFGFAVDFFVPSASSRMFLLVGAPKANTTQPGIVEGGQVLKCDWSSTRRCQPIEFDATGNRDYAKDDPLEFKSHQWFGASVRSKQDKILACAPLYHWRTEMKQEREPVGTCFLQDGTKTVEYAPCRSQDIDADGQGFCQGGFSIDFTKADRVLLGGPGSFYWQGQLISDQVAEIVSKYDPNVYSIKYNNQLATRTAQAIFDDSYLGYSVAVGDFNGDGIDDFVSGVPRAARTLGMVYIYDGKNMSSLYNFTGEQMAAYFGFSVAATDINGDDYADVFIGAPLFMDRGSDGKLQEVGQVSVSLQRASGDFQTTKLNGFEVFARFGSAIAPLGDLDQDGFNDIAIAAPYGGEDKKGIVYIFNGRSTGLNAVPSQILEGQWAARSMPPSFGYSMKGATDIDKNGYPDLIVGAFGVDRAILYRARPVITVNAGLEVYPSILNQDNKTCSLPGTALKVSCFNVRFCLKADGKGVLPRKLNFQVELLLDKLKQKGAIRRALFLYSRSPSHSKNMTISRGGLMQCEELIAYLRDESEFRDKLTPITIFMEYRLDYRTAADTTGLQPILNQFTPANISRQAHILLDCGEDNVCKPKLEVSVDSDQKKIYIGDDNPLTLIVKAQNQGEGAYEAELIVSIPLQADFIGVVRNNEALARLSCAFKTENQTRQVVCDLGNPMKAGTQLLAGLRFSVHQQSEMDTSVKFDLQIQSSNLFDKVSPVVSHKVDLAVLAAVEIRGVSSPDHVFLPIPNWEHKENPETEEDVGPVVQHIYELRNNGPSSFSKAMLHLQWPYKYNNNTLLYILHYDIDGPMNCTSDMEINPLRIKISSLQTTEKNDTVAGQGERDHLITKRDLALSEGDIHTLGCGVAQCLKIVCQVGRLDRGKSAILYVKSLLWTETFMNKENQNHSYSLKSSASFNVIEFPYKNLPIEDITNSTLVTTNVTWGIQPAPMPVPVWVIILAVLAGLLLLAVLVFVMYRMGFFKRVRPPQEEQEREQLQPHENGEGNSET
integrin protein αvβ3, sequence (P05106 27-788): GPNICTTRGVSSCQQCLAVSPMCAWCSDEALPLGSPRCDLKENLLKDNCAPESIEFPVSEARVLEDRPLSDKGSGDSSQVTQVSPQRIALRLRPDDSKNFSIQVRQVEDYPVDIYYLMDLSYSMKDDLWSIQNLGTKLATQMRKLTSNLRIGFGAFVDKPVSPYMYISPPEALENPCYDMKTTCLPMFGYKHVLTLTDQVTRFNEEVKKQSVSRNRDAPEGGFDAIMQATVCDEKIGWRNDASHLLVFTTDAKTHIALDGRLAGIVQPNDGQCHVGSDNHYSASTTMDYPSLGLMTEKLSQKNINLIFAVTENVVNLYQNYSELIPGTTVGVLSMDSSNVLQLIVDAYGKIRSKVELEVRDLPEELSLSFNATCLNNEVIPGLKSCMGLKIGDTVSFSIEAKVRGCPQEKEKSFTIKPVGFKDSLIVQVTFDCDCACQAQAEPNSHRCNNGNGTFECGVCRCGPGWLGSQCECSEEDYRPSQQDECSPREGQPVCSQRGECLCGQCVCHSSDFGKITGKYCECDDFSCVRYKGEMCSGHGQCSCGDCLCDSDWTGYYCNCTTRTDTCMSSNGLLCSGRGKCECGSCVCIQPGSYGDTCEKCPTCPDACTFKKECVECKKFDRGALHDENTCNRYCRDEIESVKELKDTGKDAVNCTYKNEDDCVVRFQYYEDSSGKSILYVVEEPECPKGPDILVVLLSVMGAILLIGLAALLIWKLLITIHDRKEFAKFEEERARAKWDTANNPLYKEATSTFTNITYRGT

Row | Structure (SMILES) | IC50 [1] | Hillslope 22RV1 [2] | IC50 [2] | inhibition of microtubule formation [3] | Kd [5, 13] | also measured
1 | C/C(CCc1ccc(O)cc1)=N\NC(=O)c1n[nH]c2c1CCCC2 [19-1] | 28.8 µM | – | – | – | – | –
2 | CC(C)C/C=C(/C=N/NC(=O)c1n[nH]c2c1CCCC2)c1ccccc1 [19-2] | 19.6 µM | −0.7631 | 364 µM | – | – | –
3 | O=C(N/N=C/CCc1cccc(C(F)(F)F)c1)c1n[nH]c2c1CCCC2 [19-3] | 19.6 µM | – | – | – | – | –
4 | Cc1ccc(/C=N/NC(=O)c2n[nH]c3c2CCCC3)cc1 [19-4] | 0.36 µM | −4.343 | 0.25 µM | significant inhibition | – | inhibition of angiogenesis (total length of blood vessels) compared with the VEGF group ([4]; 0.1 μM, FIG. 32): significantly inhibit angiogenesis
5 | O=C(N/N=C/c1c(O)cc(O)cc1O)c1n[nH]c2c1CCCC2 [19-5] | 36.7 µM | −2.689 | 49.6 µM | – | 2.15 µM | –
6 | Cc1ccc(/C=N/NC(=O)c2n[nH]c3c2CCCC3)cc1O [19-6] | 1.41 µM | −3.273 | 0.86 µM | significant inhibition | – | inhibition of angiogenesis (total length of blood vessels) compared with the VEGF group ([4]; 3.0 μM, FIG. 33-34): significantly inhibit angiogenesis
7 | COc1ccc(/C=N/NC(=O)c2n[nH]c3c2CCCC3)cc1OC [19-7] | 4.27 µM | −13.53 | 4.08 µM | did not show any obvious inhibition | 10.1 µM | –
8 | O=C(N/N=C/c1ccc([N+](=O)[O-])cc1)c1n[nH]c2c1CCCC2 [19-8] | 3.76 µM | −1.177 | 3.49 µM | did not show any obvious inhibition | – | –
9 | COc1ccc(/C=N/NC(=O)c2n[nH]c3c2CCCC3)cc1O [19-9] | 1.09 µM | −2.911 | 0.47 µM | significant inhibition | 0.78 µM | inhibition of angiogenesis (total length of blood vessels) compared with the VEGF group ([4]; 3.0 μM, FIG. 33-34): significantly inhibit angiogenesis
10 | O=C(N/N=C/c1cccc(O)c1)c1n[nH]c2c1CCCC2 [Formula (5)] | – | – | – | – | – | anti-tumor activity (activity curve) [6]: obvious anti-tumor activity; Kd ([5]; stated in summary text, read-out: KD value interacting with the protein αvβ3): 0.158 µM; inhibitory effect (activity curve) [7]: inhibitory effect; tumor-inhibiting effect (activity curve) [8]: highest tumor-inhibiting effect; anti-tumor activity (activity curve) ([2]; FIG. 21-22): obvious anti-tumor activity; anti-tumor activity (activity curve) ([1]; FIG. 21-22): obvious anti-tumor activity; inhibitory effect (activity curve) [9]: inhibitory effect; inhibitory effect (activity curve) [10]: inhibitory effect; anti-tumor activity (activity curve) [11]: obvious anti-tumor activity; effect of combination with enzalutamide [12]: synergistic effect
